Experiments:
[1] = target: T1, CsJAMM (Candidatus Caldarchaeum subterraneum, UniProt E6N2R7); assay: SDS-PAGE of SAMP Csub_C0702 precursor cleavage; type: biochemical; conditions: […] SAMP Csub_C0702, […] enzyme, […] °C, pH […] min preincubation
T1 construct: gene CSUB_C0703; N-terminal His6 tag with TEV site; synthetic gene, E. coli
T1 sequence (E6N2R7 1-140): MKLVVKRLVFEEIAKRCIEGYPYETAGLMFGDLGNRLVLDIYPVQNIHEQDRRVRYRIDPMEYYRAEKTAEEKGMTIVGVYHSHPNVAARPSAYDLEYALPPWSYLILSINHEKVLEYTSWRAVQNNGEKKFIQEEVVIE

[2] = target: T2, CsRpn11^Δ149–202 (Candidatus Caldarchaeum subterraneum, UniProt E6N8B9); assay: SDS-PAGE of CsUb-pre cleavage; type: biochemical; conditions: 14 µM CsUb-pre, 1.75 µM enzyme, 45 °C, pH 7.5, 10 min preincubation; proposed coordination of catalytic Zn2+
T2 construct: gene CSUB_C1473; JAMM core domain, C-terminal residues 149-202 deleted (full length 202); N-terminal His6 tag with TEV site

[3] = target: truncated CsRpn11^Δ149–202 (Candidatus Caldiarchaeum subterraneum)
[4] = target: truncated CsRpn11^Δ149–202 (Candidatus Caldiarchaeum subterraneum); assay: MST; 50 nM NT-647-labeled CsRpn11^Δ149–202 mixed with a serial 1:1 dilution of CsUb from 47 nM to 770 µM; 45 °C; Monolith NT.115, MST power 80%, laser intensity 40%; three independent experiments

Compound | SDS-PAGE of SAMP Csub_C0702 precursor cleavage [1] | SDS-PAGE of CsUb-pre cleavage [2] | KM of CsUb-pre cleavage by Co^2+-bound CsRpn11^Δ149–202 at 45 °C, quantified from SDS-PAGE bands [3] [µM] | Kd [4] [µM]
Sc1cccc2cccnc12 [8-thioquinoline] | effects on CsJAMM-mediated CsSAMP processing were significantly weaker | CsUb-pre processing by CsRpn11 was strongly affected by both 8-TQ and thiolutin |  | 
CC(=O)Nc1c2sscc-2n(C)c1=O [thiolutin] | effects on CsJAMM-mediated CsSAMP processing were significantly weaker | CsUb-pre processing by CsRpn11 was strongly affected by both 8-TQ and thiolutin |  | 
CsUb precursor (CsUb-pre) (natural protein) |  |  | 17.8 | 
mature C. subterraneum ubiquitin CsUb (natural protein) |  |  |  | 14.6

— PMC6043591, “Rpn11-mediated ubiquitin processing in an ancestral archaeal ubiquitination system” (Nature Communications, 2018)
